# Measured values as given in patent US20120321729A1, “NUTRITIONAL FORMULA FOR MANAGING CHRONIC OBSTRUCTIVE PULMONARY DISEASE (COPD) AND LUNG HEALTH” (priority 2011, published 2012).
# Like-named read-outs stand apart in the source and are kept apart here.
# Legend:
# [1] = test system: Nrf2 (nuclear factor erythroid 2-related factor 2); experiment: Alteration of regulatory elements of oxidative stress and inflammation (Nrf2); settings: "We and others have observed"
# [2] = test system: primary rat tracheal epithelial cells; settings: a chemical found in tobacco smoke, previously disclosed; cited from earlier work
# [3] = test system: lipopolysaccharide-induced injury (lungs); settings: rats; cited from earlier work
# [4] = test system: lipopolysaccharide-induced injury (lungs); settings: mice; cited from earlier work
# [5] = test system: Nrf2 (nuclear factor erythroid 2-related factor 2); settings: "It has been shown" (related art); cited from earlier work
# heme oxygenase 1 = settings: Zhang H S, Wang S Q Biochem Pharmacol. 2007; cited from earlier work
# [6] = test system: inducible nitric oxide synthase; settings: Zhang H S, Wang S Q Biochem Pharmacol. 2007; cited from earlier work
smiles,measurement,setting,value
Cc1coc2c1C(=O)C(=O)c1c-2ccc2c1CCCC2(C)C [Tanshinone IIA],effect on regulatory elements involved in oxidative stress and inflammation such as Nrf2,[1],alters regulatory elements
same,protection of primary rat tracheal epithelial cells from benzopyrene,[2],protects
same,protection of lungs from lipopolysaccharide-induced injury,[3],protects lungs
same,protection of lungs from lipopolysaccharide-induced injury,[4],protects lungs
same,effect on regulatory elements involved in oxidative stress and inflammation such as Nrf2,[5],alters regulatory elements
same,induction of heme oxygenase 1,heme oxygenase 1,inducer
same,suppression of the induction of inducible nitric oxide synthase,[6],suppressor of the induction
